Assay [1] deals with u-PAR mRNA. Nature of the assay: Northern blot of u-PAR mRNA in U937 cells. To be noted: 150 nM PMA, time course. Type of assay: cell-based, human. How it is done: The cells were seeded at 0.5×10^6/ml in RPMI 1640 medium containing 10% FCS, and incubated with 150 nM PMA for the indicated number of hours. After the incubation both the adherent and the non-adherent cells were collected, pooled, and total RNA was isolated as described in Materials and Methods. For the Northern blot analyses, 30 μg of total RNA were electrophoresed in 1.5% agarose gels under denaturing conditions and blotted onto a nitrocellulose filter. The filters were hybridized to a random primed labelled u-PAR cDNA probe (A), or a β-actin cDNA probe (B). The positions of the ribosomal RNA in the Northern blot are indicated to the left.
The human histiocytic lymphoma cell line U937 (American Type Culture Collection (ATCC), CRL 1593) was obtained from Dr. A. Fattorssi (Research Lab. of Aeronautica Militare, Rome, Italy) and cultured in RPMI 1640 medium with 10% heat inactivated fetal calf serum and 2 mM L-glutamine at a density of 0.5×10^6 cells/ml at the onset of the experiment. The medium was supplemented with 100 units/ml of penicillin and 25 ug/ml streptomycin. […]
(§1) Total cellular RNA was isolated from the cells as described by Chomczynsky and Sacchi (1987). The RNA was analyzed by hybridizing Northern blots as described (Lund et al., 1987), except that random primed labelled plasmid probes were used. […]

Assay [2] deals with u-PAR mRNA. Put plainly: Northern blot of u-PAR mRNA in A549 cells. The class given is cell-based, human. To be noted: 48 hours, PMA 150 nM, mEGF 20 ng/ml, TGF-β1 7.5 ng/ml, dexamethasone 10^−6 M. The method, then:
(§2) The cells were seeded at 0.5×10^6/ml in DMEM and grown to confluence, washed in PBS^+ and kept under serum-free conditions for 48 hours followed by no additions (1, 6), by addition of Dex (10^−6M) (2, 7) PMA (150 nM) (3, 8) mEGF (20 ng/ml) (4, 9) and TGF-β1, (7.5 ng/ml) (5, 10) for 48 hours. After incubation, both the adherent and the non-adherent cells were collected, pooled, and total RNA was isolated as described in Materials and Methods. For the Northern blot analyses, 30 μg of total RNA were electrophoresed in 1.5% agarose gels under denaturing conditions and blotted onto a nitrocellulose filter. The filters were hybridized to a random primed labeled u-PAR cDNA probe. The positions of the ribosomal RNA in the Northern are indicated to the left.
(§3) The human histiocytic lymphoma cell line U937 (American Type Culture Collection (ATCC), CRL 1593) was obtained from Dr. A. Fattorssi (Research Lab. of Aeronautica Militare, Rome, Italy) and cultured in RPMI 1640 medium with 10% heat inactivated fetal calf serum and 2 mM L-glutamine at a density of 0.5×10^6 cells/ml at the onset of the experiment. The medium was supplemented with 100 units/ml of penicillin and 25 ug/ml streptomycin. The human rhabdomyosarcoma (RD) and adenocarcinoma (A549) cell lines (ATCC CCL 136 and ATCC CCl 185, respectively) were obtained from Flow laboratories, Irvine, U.K., and kept in Dulbecco's modified Eagle's medium supplemented with 10% fetal calf serum until confluency, as described earlier (Lund et al., 1988). The cell lines were tested for and found free from Mycoplasma infection. PMA and the other compounds were present during different time periods and in varying concentrations, as indicated for each experiment. The adherent cells were released by a rubber policeman, and harvested for RNA analysis as described (Mayer et al., 1988).
as §1

Assay [3] has as its system u-PAR mRNA. Put plainly: Northern blot of u-PAR mRNA in RD cells. The class given is cell-based, human. Conditions: 48 hours, PMA 150 nM, mEGF 20 ng/ml, TGF-β1 7.5 ng/ml, dexamethasone 10^−6 M. The method, then: as §2, §3, §1
Assay [4] has as its system u-PAR. Nature of the assay: u-PAR protein level in U937 cells by cross-linking of detergent phase to 125I-ATF. Conditions: increasing time of treatment, PMA 150 nM, dibuturyl cAMP 1 mM. Type of assay: cell-based, human.
A further assay deals with U937 cells. Nature of the assay: Fate of receptor-bound ligands on U937 cells (internalization and degradation). Type of assay: cell-based, human.
The target in a further assay is uPAR-bound u-PA (Homo sapiens, UniProt P00749). Type of assay: cell-based. Conditions: peptide 0.5 mg/ml 30 minutes preincubation; PAI-1 0.9 or 4.5 nM. The method, then:
U937 cells were grown in suspension in RPMI 1640 medium supplemented with 5% heat-inactivated fetal calf serum. PMA-stimulation of U937 cells was performed at a cell density of […] cells/ml with 150 nM PMA for 4 days. The adherent cell population was harvested with a rubber scraper and resuspended in PBS. […] The effect of PAI's on the activity of cell-bound u-PA was determined by the addition of varying concentrations of PAI-1 (0.18-18.4 nM) or PAI-2 (1.13-56.7 nM) to the incubations at the same time as the addition of plasminogen. Curves were then constructed of plasmin concentration against time. […] [pln]∞ was calculated from the relationship: [[…]]0) equation.2 where Δ[pln]0 is the initial rate of plasmin generation which was determined in control incubations in the absence of inhibitors. […] Association rate constants (second-order rate constants) were calculated from the slope of the line of double reciprocal plots of kapp against inhibitor concentration.

Assay [5] deals with T1, u-PAR (Homo sapiens, UniProt Q03405). Put plainly: Release of 125I-labelled DFP-u-PA from PMA-stimulated U937 cells by phospholipases. To be noted: phospholipases >5 μg/ml, compared to blind sample. Type of assay: cell-based.
The target in assay [6] is T1, u-PAR. Nature of the assay: Chemical cross-linking of 125I-ATF to purified u-PAR. Type of assay: binding. To be noted: unlabelled reagent 100 nM, u-PAR approx. 1 nM, 125I-ATF approx. 1 nM. The method, then:
B) Affinity column eluate was diluted to yield an approximate concentration of u-PAR of 1 nM during the assay. The samples were preincubated alone (lane 2) or in the presence of the following unlabelled reagents at a concentration of 100 nM: bovine serum albumin (lane 3), t-PA (lane 4), plasminogen (lane 5), murine epidermal growth factor (lane 6), ATF (lane 7), active 54 kD u-PA (lane 8), DFP-inactivated 54 kD u-PA (lane 9). After preincubation for 15 min at room temperature, ^125I-labelled ATF (approximately 1 nM) was added, followed by incubation for 1 hour at 4° C. After incubation, chemical cross-linking was performed with DSS, after which the samples were analyzed by SDS-PACE on a 6-16% gradient gel under non-reducing conditions and autoradiography. […] Electrophoretic mobilities of molecular weight standard proteins are inducated (kD).
Cross-linking of u-PAR in complex mixtures or purified fractions to ^125I-labelled ATF was performed as described for solubilized receptor (Nielsen et al., 1988), except that 2 mM disuccinimidylsuberate (DSS) was used for cross-linking. Cross-linking of purified u-PAR to DFP-treated u-PA for analysis by SDS-PAGE and silver-staining was performed in the same manner, except that non-labelled DFP-treated u-PA was used as the ligand.

For another assay, the system named is HT-1080 cells. Put plainly: Plasmin release from plasmin-loaded HT-1080 cells. Type of assay: cell-based, human. How it is done:
FIG. 24. Plasmin release from HT-1080 cells into serum-free and serum-containing media. Confluent layers of HT-1080 cells were first loaded with plasmin by incubation for 1 hour at 37° C. in serum-free MEM medium (0.5 ml) containing human plasmin (0-5 μg/ml). After rinsing the cell layers three times, they were incubated for 2 hours at 37° C. with either serum-free medium (∘ - - - ∘), medium containing 10% heat-inactivated and plasminogen-depleted fetal calf serum (● - - - ●), or the latter with tranexamic acid (100 μM) (▪ - - - ▪). Plasmin was then assayed in the cell-bound fraction (A) and the media (B). At the time of transfer to new media, there was approximately 28 ng of plasmin bound to the cells from the pretreatment with 2.5 μg of plasmin/well.
In the Examples concerning plasmin binding to cells from medium, human plasmin (approximately 18 CU/mg; Kabi Diagnostica, Stockholm, Sweden) was added to the cultures at final concentrations of 0-5 μg/ml. The cells were incubated for 3 hours at 37° C. before assay of cell-bound and supernatant plasmin (see below). For plasmin release experiments, cells were loaded for 1 hour at 37° C. with 0-5 μg/ml plasmin in serum-free medium, then rinsed three times with MEM.
Plasmin bound to the cell layer was recovered and assayed as follows. After harvest of culture medium, the cells were rinsed three times with PBS (plasmin assays of further rinses were negative); then the bound plasmin was specifically eluted (Miles, L. A., and E. F. Plow, “Binding and activation of plasminogen on the platelet surface”, J. Biol. Chem. 260: 4303-4311, 1985) with a solution of 1 mM tranexamic acid in the same rinsing solution (150 μl/well). Plasmin activity was assayed in eluate samples (50 μl) as above with an incubation time of 3 hours at 37° C. Tranexamic acid at 1 mM had no effect on the thioesterase activity of plasmin in these assays.

For the next assay, the system named is cultured cells. Conditions: plasmin, some cell types (Burtin and Fondaneche, 1988); cited from earlier work.

Regarding `CCCCCCCCCCCCCC(=O)O[C@@H]1[C@@H](C)[C@@]2(O)[C@@H](C=C(CO)C[C@]3(O)C(=O)C(C)=C[C@@H]23)[C@@H]2C(C)(C)[C@]12OC(C)=O` [PMA, Phorbol 12-myristate 13-acetate], the “u-PAR mRNA level” value in the assay on u-PAR mRNA [1] is given as “maximal effect after 24 hours”; in the assay with u-PAR mRNA [2] it was “increased”; with u-PAR mRNA [3], “increased”. In addition, the “u-PAR protein level (signal of 125I-ATF cross-linked to u-PAR)” value in the assay on u-PAR [4] is on record as “increase in the strength of signal”.

As for `CCN(CC)CCCC(C)Nc1ccnc2cc(Cl)ccc12` (stereo not shown) [chloroquine], the “Degradation of u-PA:PAI-1 ligand” value in the assay with U937 cells was found to be 20%.

For “Gly-Arg-Gly-Asp-Ser (GRGDS; printed: Gly-Arg-Gly-Asp-Ser)”, the “Rates of inhibition of cell-bound u-PA by PAI-1 in the presence or absence of the peptide” value in the assay with uPAR-bound u-PA is reported as “the same”.

As for “TGF-β1: porcine transforming growth factor β-type 1”, the “u-PAR mRNA level” value in the assay on u-PAR mRNA [2] and with u-PAR mRNA [3] was “increased” each time.

On to Trypsin, for which the “Liberation of 125I-labelled DFP-u-PA from the cell surface” value at u-PAR [5] is “efficiently released all cell surface associated radioactivity”.

In the case of “bovine serum albumin: unrelated control protein”, the “Competition for binding and cross-linking of 125I-labelled ATF to purified u-PAR” value (shortened to “Competition”) in the assay with u-PAR [6] was “no competition”.

In the case of “epidermal growth factor: murine epidermal growth factor”, the “Competition” value with u-PAR [6] is “no competition”. The “u-PAR mRNA level” value in the assay on u-PAR mRNA [2] and in the assay with u-PAR mRNA [3] was “increased” throughout.

As for t-PA: tissue-type plasminogen activator, in the assay with u-PAR [6], the “Competition” value is listed as “no competition”.

B1: plasmin: human plasmin (Kabi Diagnostica) (protein, UniProt P00747 20-580; P00747 581-810, looked up)
Plasmin heavy chain A: EPLDDYVNTQGASLFSVTKKQLGAGSIEECAAKCEEDEEFTCRAFQYHSKEQQCVIMAENRKSSIIIRMRDVVLFEKKVYLSECKTGNGKNYRGTMSKTKNGITCQKWSSTSPHRPRFSPATHPSEGLEENYCRNPDNDPQGPWCYTTDPEKRYDYCDILECEEECMHCSGENYDGKISKTMSGLECQAWDSQSPHAHGYIPSKFPNKNLKKNYCRNPDRELRPWCFTTDPNKRWELCDIPRCTTPPPSSGPTYQCLKGTGENYRGNVAVTVSGHTCQHWSAQTPHTHNRTPENFPCKNLDENYCRNPDGKRAPWCHTTNSQVRWEYCKIPSCDSSPVSTEQLAPTAPPELTPVVQDCYHGDGQSYRGTSSTTTTGKKCQSWSSMTPHRHQKTPENYPNAGLTMNYCRNPDADKGPWCFTTDPSVRWEYCNLKKCSGTEASVVAPPPVVLLPDVETPSEEDCMFGNGKGYRGKRATTVTGTPCQDWAAQEPHRHSIFTPETNPRAGLEKNYCRNPDGDVGGPWCYTTNPRKLYDYCDVPQCAAPSFDCGKPQVEPKKCPGR
Plasmin light chain B: VVGGCVAHPHSWPWQVSLRTRFGMHFCGGTLISPEWVLTAAHCLEKSPRPSSYKVILGAHQEVNLEPHVQEIEVSRLFLEPTRKDIALLKLSSPAVITDKVIPACLPSPNYVVADRTECFITGWGETQGTFGAGLLKEAQLPVIENKVCNRYEFLNGRVQSTELCAGHLAGGTDSCQGDSGGPLVCFEKDKYILQGVTSWGLGCARPNKPGVYVRVSRFVTWIEGVMRNN
modifications: plasmin
Turning to B1, the “Plasmin activity recovered from the cells” value in the assay on HT-1080 cells (2 hours 37° C., 10% serum-containing medium) is 40%. The “Plasmin activity remaining bound to cells” value in the assay with HT-1080 cells (2 hours 37° C., fresh serum-free medium) was “approximately 40%”. Besides, the “Plasmin activity detected in the medium” value is “about 11%” in the assay on HT-1080 cells (serum-containing medium) and 60% in the assay on HT-1080 cells (serum-free medium). In addition, in the assay with cultured cells, the Kd is 50 nM.

As usually defined, the Kd is a measure of binding affinity in units of concentration.

The values above are taken from US20030027981A1, “Urokinase-type plasminogen activator receptor” (priority 1989, published 2003).
